The data set is classed as physicochemical. The protocol:
A time-dependent evaporation study was performed with a composition of the invention (FIG. 3). Isoflurane alone was used as the control in the experiment.

`FC(F)OC(Cl)C(F)(F)F` (centres unmarked) [isoflurane]: the original weight remaining (0.75 h) is recorded as 86.8%. In addition, the “lost due to evaporation” value (after 45 minutes of experiment) stood at 13.2%.

The record behind these values is patent publication US11304913B2, “Analgesic compositions” (Vapogenix, Inc., priority 2013, dated 2022).
